# From US10674727B2, “Substituted oxadiazoles for combating phytopathogenic fungi” (priority 2015, dated 2020)
# Tested on: Phakopsora pachyrhizi
# Assay: Protective control of soy bean rust on soy beans (glass house trial)
# Type: in vivo
# Conditions: sprayed 2 days before inoculation, soy bean seedlings, untreated plants 90%
# Procedure: The spray solutions were prepared in several steps: The stock solution were prepared: a mixture of acetone and/or dimethylsulfoxide and the wetting agent/emulsifier Wettol, which is based on ethoxylated alkylphenoles, in a relation (volume) solvent-emulsifier of 99 to 1 was added to 25 mg of the compound to give a total of 5 ml. Water was then added to total volume of 100 ml. This stock solution was diluted with the described solvent-emulsifier-water mixture to the given concentration.
# II.2) Protective control of soy bean rust on soy beans caused by Phakopsora pachyrhizi Leaves of pot-grown soy bean seedlings were sprayed to run-off with an aqueous suspension, containing the concentration of active ingredient or their mixture as described below. The plants were allowed to air-dry. The trial plants were cultivated for 2 day in a greenhouse chamber at 23 to 27° C. and a relative humidity between 60 and 80%. Then the plants were inoculated with spores of Phakopsora pachyrhizi. To ensure the success the artificial inoculation, the plants were transferred to a humid chamber with a relative humidity of about 95% and 20 to 24° C. for 24 h. The trial plants were cultivated for fourteen days in a greenhouse chamber at 23 to 27° C. and a relative humidity between 60 and 80%. The extent of fungal attack on the leaves was visually assessed as % diseased leaf area.
structure (smiles),measurement,setting,value
CC1CCN(Cc2ccc(-c3noc(C(F)(F)F)n3)cc2)C1=O (stereo not shown) [Ex-32],diseased leaf area,32 ppm active compound,0%
CC1(C)CC(=O)N(Cc2ccc(-c3noc(C(F)(F)F)n3)cc2)C1 [Ex-31],diseased leaf area,32 ppm active compound,0%
CCC(=O)N(C)Cc1ccc(-c2noc(C(F)(F)F)n2)cc1 [Ex-7],diseased leaf area,32 ppm active compound,0%
CCC(C)C(=O)N(C)Cc1ccc(-c2noc(C(F)(F)F)n2)cc1 (stereo not shown) [Ex-14],diseased leaf area,32 ppm active compound,0%
CCC(C)C(=O)N(CC)Cc1ccc(-c2noc(C(F)(F)F)n2)cc1 (stereo not shown) [Ex-28],diseased leaf area,32 ppm active compound,0%
CC(=O)NC(c1ccc(-c2noc(C(F)(F)F)n2)cc1)C(F)(F)F (stereo not shown) [Ex-23],diseased leaf area,32 ppm active compound,0%
CC(C)C(=O)N(C)C(C)c1ccc(-c2noc(C(F)(F)F)n2)cc1 (stereo not shown) [Ex-21],diseased leaf area,32 ppm active compound,0%
CCCC(=O)N(CC)Cc1ccc(-c2noc(C(F)(F)F)n2)cc1 [Ex-25],diseased leaf area,16 ppm active compound,0%
CC(C)N(Cc1ccc(-c2noc(C(F)(F)F)n2)cc1)C(=O)C(C)(C)C [Ex-10],diseased leaf area,32 ppm active compound,0%
CCC(=O)N(CC)Cc1ccc(-c2noc(C(F)(F)F)n2)cc1 [Ex-26],diseased leaf area,16 ppm active compound,0%
CCN(Cc1ccc(-c2noc(C(F)(F)F)n2)cc1)C(=O)C(C)C [Ex-24],diseased leaf area,16 ppm active compound,0%
CNC(c1ccc(-c2noc(C(F)(F)F)n2)cc1)C(F)(F)F (stereo not shown) [Ex-1],diseased leaf area,32 ppm active compound,0%
CN(Cc1ccc(-c2noc(C(F)(F)F)n2)cc1)C(=O)C(C)(C)C [Ex-8],diseased leaf area,32 ppm active compound,0%
CCCC(=O)N(C)Cc1ccc(-c2noc(C(F)(F)F)n2)cc1 [Ex-12],diseased leaf area,32 ppm active compound,0%
CCCC(=O)N(C)C(C)c1ccc(-c2noc(C(F)(F)F)n2)cc1 (stereo not shown) [Ex-19],diseased leaf area,32 ppm active compound,0%
CC(C)CC1CCN(Cc2ccc(-c3noc(C(F)(F)F)n3)cc2)C1=O (stereo not shown) [Ex-29],diseased leaf area,32 ppm active compound,0%
C=CCN(Cc1ccc(-c2noc(C(F)(F)F)n2)cc1)C(=O)CC [Ex-5],diseased leaf area,32 ppm active compound,0%
"O=C1CCCN1Cc1ccc(-c2noc(C(F)(F)F)n2)cc1 [Ex-30, 1-[[4-[5-(trifluoromethyl)-1,2,4-oxadiazol-3-yl]phenyl]methyl] pyrrolidin-2-one]",diseased leaf area,32 ppm active compound,0%
CCC(=O)N(Cc1ccc(-c2noc(C(F)(F)F)n2)cc1)C(C)C [Ex-9],diseased leaf area,32 ppm active compound,0%
CCC(=O)N(C)C(C)c1ccc(-c2noc(C(F)(F)F)n2)cc1 (stereo not shown) [Ex-18],diseased leaf area,32 ppm active compound,0%
"CC(=O)N(C)C(C)c1ccc(-c2noc(C(F)(F)F)n2)cc1 (stereo not shown) [Ex-16, N-methyl-N-[1-[4-[5-(trifluoromethyl)-1,2,4-oxadiazol-3-yl]phenyl]ethyl]acetamide]",diseased leaf area,32 ppm active compound,0%
"CC(C)C(=O)N(C)Cc1ccc(-c2noc(C(F)(F)F)n2)cc1 [Ex-13, N,2-dimethyl-N[[4-[5-(trifluoromethyl)-1,2,4-oxadiazol-3-yl]phenyl]methyl]propanamide]",diseased leaf area,32 ppm active compound,0%
C=CCN(Cc1ccc(-c2noc(C(F)(F)F)n2)cc1)C(=O)C(C)(C)C [Ex-6],diseased leaf area,32 ppm active compound,0%
CCN(Cc1ccc(-c2noc(C(F)(F)F)n2)cc1)C(=O)C(C)(C)C [Ex-27],diseased leaf area,16 ppm active compound,0%
CCC(CC)C(=O)N(C)Cc1ccc(-c2noc(C(F)(F)F)n2)cc1 [Ex-11],diseased leaf area,32 ppm active compound,0%
C=CCN(Cc1ccc(-c2noc(C(F)(F)F)n2)cc1)C(C)=O [Ex-4],diseased leaf area,32 ppm active compound,0%
CCC(C)C(=O)N(C)C(C)c1ccc(-c2noc(C(F)(F)F)n2)cc1 (stereo not shown) [Ex-22],diseased leaf area,32 ppm active compound,0%
CC(c1ccc(-c2noc(C(F)(F)F)n2)cc1)N(C)C(=O)C(C)(C)C (stereo not shown) [Ex-17],diseased leaf area,32 ppm active compound,0%
CC(=O)NCc1ccc(-c2noc(C(F)(F)F)n2)cc1 [Ex-15],diseased leaf area,32 ppm active compound,0%
CC1(C)CCC(=O)N(Cc2ccc(-c3noc(C(F)(F)F)n3)cc2)C1 [Ex-33],diseased leaf area,32 ppm active compound,0%
CCC(CC)C(=O)N(C)C(C)c1ccc(-c2noc(C(F)(F)F)n2)cc1 (stereo not shown) [Ex-20],diseased leaf area,32 ppm active compound,0%
